Here are results for 24 compounds from US12281118B2, “Nitrogen-containing fused heterocyclic SHP2 inhibitor compound, preparation method, and use” (SHANGHAI RINGENE BIOPHARMA CO., LTD., priority 2018, dated 2025).

pIC50: −log10 of the molar value. Read-outs that look alike come from different tables or passages of the source.

For test [1], the system named is MV4-11 leukemia cells. Put plainly: Inhibition of proliferation of MV4-11 leukemia cells (CellTiter-Glo, 72 h). The format is cell-based. The note with it: Homo sapiens, read-out: IC50 value, MV4-11 cell proliferation; for pIC50: MV4-11, 72 h; for IC50: MV4-11, 72 h, in uM. On the procedure:
Specific experimental procedures: 1) At Day 0: Inoculating trypsin-digested cells in 96-well plate and suspending the plate in cell culture medium; measure cell density using an automatic cell counter, diluting the cells with the culture medium to appropriate density, adding 100 μl of cell suspension in the 96-well plate, and incubating a cell-free medium as a control well in a cell incubator with […] at 37° C. overnight; 2) Day 1: Treating test compounds of the cells using a drug for a total of 8 concentrations, and diluting at a 3× concentration, wherein 10 μM is a starting test concentration of the test compounds. […] IC50 values are obtained by a four-parameter regression using software attached to the plate reader (the specific results are shown in Table 2).

For test [2], the target named is SHP2 enzyme (Homo sapiens (Human), UniProt Q06124). Put plainly: Inhibitory activity against SHP2 enzyme (Caliper conversion rate). The class given is biochemical. The note with it: read-out: SHP2 Enzyme Inhibition IC50 Value. The protocol:
(1) Preparing 1×Reaction Buffer according to the BPS Biosciences' Instructions for Use of the SHP2 enzyme. (2) Preparing a compound concentration gradient: Test the test compound at 10 μM under 3× dilution for 10 concentrations, diluting to a 100% dimethyl sulfoxide solution at a 100× final concentration in a 384-well plate, and diluting the compound with Precision 4× for 10 concentrations. Transferring 250 nL of the compound at the 100× final concentration to a target plate OptiPlate-384F using a dispenser Echo 550. […] (3) Preparing the activation peptide solution at a 5× final concentration with the 1×Reaction Buffer, adding 5 μL of the solution to a reaction plate, respectively, and centrifuging at 1000 rpm for 1 min. (4) Preparing an enzyme solution at a 2.5× final concentration with the 1×Reaction Buffer, adding 10 μL of the solution to the reaction plate, respectively, centrifuging at 1000 rpm for 1 min, and incubating at room temperature for 60 min. (5) Preparing a substrate peptide solution at a 2.5× final concentration with the 1×Reaction Buffer, centrifuging at 1000 rpm for 1 min, and incubating at room temperature for 30 min. (6) Adding 30 μL of stop test solution to stop the reaction, centrifuging at 1000 rpm for […], and mixing well by shaking. (7) Reading the conversion rate with a Caliper EZ Reader. (7) Data analysis:
Wherein: Conversion %/_sample is the reading of a conversion rate of a sample; Conversion %_min: mean of negative control wells, which represents the reading of a conversion rate in absence of enzyme activity wells; Conversion %_max: mean of a ratio of positive control wells, which represents the reading of a conversion rate in absence of compound inhibition wells.

Sequence of SHP2 enzyme (Q06124 whole entry): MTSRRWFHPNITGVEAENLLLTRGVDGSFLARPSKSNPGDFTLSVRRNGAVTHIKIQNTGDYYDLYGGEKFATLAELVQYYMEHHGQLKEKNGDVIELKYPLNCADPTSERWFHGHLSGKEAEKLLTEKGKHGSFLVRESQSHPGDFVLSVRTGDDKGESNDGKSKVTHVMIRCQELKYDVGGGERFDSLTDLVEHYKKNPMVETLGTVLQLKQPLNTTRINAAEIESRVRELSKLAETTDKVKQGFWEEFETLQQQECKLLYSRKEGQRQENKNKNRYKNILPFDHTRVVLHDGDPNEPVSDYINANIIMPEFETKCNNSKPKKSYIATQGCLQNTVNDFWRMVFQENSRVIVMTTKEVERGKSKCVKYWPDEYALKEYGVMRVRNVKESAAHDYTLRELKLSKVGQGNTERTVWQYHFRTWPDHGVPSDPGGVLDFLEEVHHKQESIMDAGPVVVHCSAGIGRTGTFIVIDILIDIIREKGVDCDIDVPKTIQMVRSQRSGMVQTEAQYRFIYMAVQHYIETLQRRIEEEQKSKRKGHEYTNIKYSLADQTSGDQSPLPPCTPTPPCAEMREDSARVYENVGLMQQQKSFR

As for `Cc1nc(N2CCC(C)(N)CC2)n2ccnc2c1-c1cccc(Cl)c1Cl` [Comparative Compound 1, 1-(8-(2,3-dichlorophenyl)-7-methylimidazo [1,2-c]pyrimidin-5-yl)-4-methylpiperidin-4-amine, reference compound], the pIC50 in test [1] was 5.85; in test [2], 6.85.

For the compound `CC1(N)CCN(c2ncc(-c3cccc(Cl)c3Cl)c3nccn23)CC1` [Comparative Compound 2, 1-(8-(2,3-dichlorophenyl)imidazo [1,2-c]pyrimidin-5-yl)-4-methylpiperidin-4-amine, reference compound], the figures for the pIC50 in test [1] and in test [2] were below 5.00 and 5.46, respectively.

On to `Cc1nc(N2CCC3(CC2)Cc2ccccc2[C@H]3N)n2ccnc2c1Sc1cccnc1C(F)(F)F` [Example 2], for which the pIC50 in test [1] is 7.50.

Take `Cc1nc(N2CCC3(CC2)Cc2ccccc2[C@H]3N)n2ccnc2c1Sc1ccnc(NC2CC2)c1Cl` [Example 3, (S)-1′-(8-((3-chloro-2-(cyclopropylamino)pyridin-4-yl)thio)-7-methylimidazo [1,2-c]pyrimidin-5-yl)-1,3-dihydrospiro [indene-2,4′-piperidine]-1-amine]: the pIC50 in test [1] was 8.55; in test [2], 9.00.

Consider `Nc1nc(N2CCC3(CC2)Cc2ccccc2[C@H]3N)n2ccnc2c1Sc1cccnc1C(F)(F)F` [Example 5], for which the pIC50 in test [1] is above 8.82; in test [2], 9.10.

`Cc1nc(N2CCC3(CC2)Cc2ncccc2[C@H]3N)n2ccnc2c1Sc1ccnc(N)c1Cl` [Example 6, (S)-1′-(8-((2-amino-3-chloropyridin-4-yl)thio)-7-methylimidazo [1,2-c]pyrimidin-5-yl)-5,7-dihydrospiro [cyclopentano [b]pyridine-6,4′-piperidine]-5-amine]: the figures for the pIC50 in test [1] and in test [2] were 8.06 and 8.89, respectively.

Take `COc1ccc2c(c1)[C@@H](N)C1(CCN(c3nc(C)c(Sc4ccnc(N)c4Cl)c4nccn34)CC1)C2` [Example 7, (S)-1′-(8-((2-amino-3-chloropyridin-4-yl)thio)-7-methylimidazo [1,2-c]pyrimidin-5-yl)-6-methoxy-1,3-dihydrospiro [indene-2,4′-piperidine]-1-amine]: the pIC50 in test [1] is 8.03; in test [2] it was 8.68.

With `Cc1nc(N2CCC3(CC2)Cc2cc(F)c(F)cc2[C@H]3N)n2ccnc2c1Sc1ccnc(N)c1Cl` [Example 8, (S)-1′-(8-((2-amino-3-chloropyridin-4-yl)thio)-7-methylimidazo [1,2-c]pyrimidin-5-yl)-5,6-difluoro-1,3-dihydrospiro [indene-2,4′-piperidine]-1-amine], the pIC50 in test [1] is 7.92; in test [2], 8.43.

For the compound `Nc1nccc(Sc2c(CF)nc(N3CCC4(CC3)Cc3ccccc3[C@H]4N)n3ccnc23)c1Cl` [Example 12, (S)-1′-(8-((2-amino-3-chloropyridin-4-yl)thio)-7-(fluoromethyl)imidazo [1,2-c]pyrimidin-5-yl)-1,3-dihydrospiro [indene-2,4′-piperidine]-1-amine], the pIC50 was 7.61 in test [1] and 8.54 in test [2].

`Cc1nc(N2CCC3(CC2)Oc2ccccc2[C@H]3N)n2ccnc2c1Sc1ccnc(N)c1Cl` [Example 13, (R)-1′-(8-((2-amino-3-chloropyridin-4-yl)thio)-7-methylimidazo [1,2-c]pyrimidin-5-yl)-3H-spiro [benzofuran-2,4′-piperidine]-3-amine]: the pIC50 is 7.41 in test [1] and 8.74 in test [2].

With `Cc1nc(N2CCC3(CC2)Cc2ncsc2[C@H]3N)n2ccnc2c1Sc1ccnc(N)c1Cl` [Example 14, (S)-1′-(8-((2-amino-3-chloropyridin-4-yl)thio)-7-methylimidazo [1,2-c]pyrimidin-5-yl)-4,6-dihydrospiro [cyclopentano [d]thiazol-5,4′-piperidine]-6-amine], the pIC50 is 7.74 in test [1] and 8.51 in test [2].

With `Cc1nc(N2CCC3(CC2)Cc2ccccc2[C@H]3N)n2ccnc2c1-c1ccnc(N)c1Cl` [Example 15, (S)-1′-(8-(2-amino-3-chloropyridin-4-yl)-7-methylimidazo [1,2-c]pyrimidin-5-yl)-1,3-dihydrospiro [indene-2,4′-piperidine]-1-amine], the pIC50 is 6.87 in test [1] and 7.92 in test [2].

With `Cc1nc(N2CCC3(CC2)Cc2ccccc2[C@H]3N)n2ccnc2c1-c1cccnc1C(F)(F)F` [Example 16, (S)-1′-(7-methyl-8-(2-(trifluoromethyl)pyridin-3-yl)imidazo [1,2-c]pyrimidin-5-yl)-1,3-dihydrospiro [indene-2,4′-piperidine]-1-amine], the figures for the pIC50 in test [1] and in test [2] were 6.97 and 8.02, respectively.

Regarding `Cc1cc(N2CCC3(CC2)Cc2ccccc2[C@H]3N)n2ccnc2c1Sc1ccnc(N)c1Cl` [Example 17, (S)-1′-(8-((2-amino-3-chloropyridin-4-yl)thio)-7-methylimidazo [1,2-a]pyridin-5-yl)-1,3-dihydrospiro [indene-2,4′-piperidine]-1-amine], the pIC50 in test [1] is 7.32; in test [2], 8.04.

Regarding `Cc1cc(N2CCC3(CC2)Cc2ccccc2[C@H]3N)n2cnnc2c1Sc1ccnc(N)c1Cl` [Example 18, (S)-1′-(8-((2-amino-3-chloropyridin-4-yl)thio)-7-methyl-[1,2,4]triazolo [4,3-a]pyridin-5-yl)-1,3-dihydrospiro [indene-2,4′-piperidine]-1-amine], the values for the pIC50 in test [1] and in test [2] were 6.07 and 7.61, respectively.

With `Cc1cc(N2CCC3(CC2)Cc2ccccc2[C@H]3N)n2ncnc2c1Sc1ccnc(N)c1Cl` [Example 19, (S)-1′-(8-((2-amino-3-chloropyridin-4-yl)thio)-7-methyl-[1,2,4]triazolo [1,5-a]pyridin-5-yl)-1,3-dihydrospiro [indene-2,4′-piperidine]-1-amine], the pIC50 is 6.16 in test [1] and 7.53 in test [2].

Regarding `Cc1nc(N2CCC3(CC2)Cc2ccccc2C3N)n2ccnc2c1Sc1ccnc(N)c1Cl` (stereo not drawn) [Example 20, 1′-(8-((2-amino-3-chloropyridin-4-yl)thio)-7-methylimidazo [1,2-c]pyrimidin-5-yl)-1,3-dihydrospiro [indene-2,4′-piperidine]-1-amine], the pIC50 in test [1] is 8.03; in test [2], 8.42.

For `Cc1nc(N2CCC(C)(N)CC2)n2ncnc2c1-c1cccc(Cl)c1Cl` [Example 21, 1-(8-(2,3-dichlorophenyl)-7-methyl-[1,2,4]triazole [1,5-c]pyrimidin-5-yl)-4-methylpiperidin-4-amine], the IC50 in test [1] was above 10 µM.

Consider `Cc1nc(N2CCC(C)(N)CC2)n2cnnc2c1-c1cccc(Cl)c1Cl` [Example 22, 1-(8-(2,3-dichlorophenyl)-7-methyl-[1,2,4]triazole [4,3-c]pyrimidin-5-yl)-4-methylpiperidin-4-amine], for which the IC50 in test [1] was above 10 µM.

Consider `Cc1cc(N2CCC(C)(N)CC2)n2cnnc2c1-c1cccc(Cl)c1Cl` [Example 23, 1-(8-(2,3-dichlorophenyl)-7-methyl-[1,2,4]triazole [4,3-a]pyridin-5-yl)-4-methylpiperidin-4-amine], for which, in test [1], the IC50 was above 10 µM.

Consider `Cc1cc(N2CCC(C)(N)CC2)n2ccnc2c1-c1cccc(Cl)c1Cl` [Example 24, 1-(8-(2,3-dichlorophenyl)-7-methylimidazolo [1,2-a]pyridin-5-yl)-4-methylpiperidin-4-amine], for which the IC50 in test [1] is 5.4 µM. Moreover, the pIC50 in test [2] is 6.15.

With `Cc1nc(N2CCC(C)(N)CC2)n2ccnc2c1Sc1cccc(Cl)c1Cl` [Example 25, 1-(8 ((2,3-dichlorophenyl)sulfanyl)-7-methylimidazole [1,2-c]pyrimidin-5-yl)-4-methylpiperidin-4-amine], the pIC50 in test [1] is 5.87.

In the case of `Cc1nc(N2CCC3(CCC[C@H]3N)CC2)n2ccnc2c1Sc1ccnc(N)c1Cl` [Example 26, (R)-8-(8-((2-amino-3-chloropyridin-4-yl)thio)-7-methylimidazole [1,2-c]pyrimidin-5-yl)-8-azaspiro [4.5] quin-1-amine], the results for the pIC50 in test [1] and in test [2] were 6.83 and 8.21, respectively.

As for `CC1(N)CCN(c2nc(CF)c(-c3cccc(Cl)c3Cl)c3nccn23)CC1` [Example 28, 1-(8-(2,3-dichlorophenyl)-7-(fluoromethylene)imidazole [1,2-c]pyrimidin-5-yl)-4-methylpiperidin-4-amine], the pIC50 in test [1] is 5.70.
